The values below are quoted from earlier work in PubChem BioAssay AID1259409 (Chemical Carcinogenesis Research Information System (CCRIS), 2018).

The series has as its system rodent chemically induced tumor inhibition, incidence and multiplicity. Kind of series: CCRIS tumor inhibitor studies. Particulars: Promoter: NONE USED.

For `CCCCCCCCCCCCN=C=S`, the “tumour outcome (control, treated, inhibition, significance)” value is, setting by setting: (Carcinogen: 4(METHYLNITROSAMINO)-1-(3-PYRIDYL)-1-BUTANONE, 64091-91-4, Dose [Inhibitor]: 0, 1 UMOL IN 0.1 ML CORN OIL ONCE 2 HR PRIOR TO CARCINOGEN DOSE (STUDY DURATION: 16 WK), Route [Inhibitor]: GAVAGE, Species: MOUSE, Strain/Sex: STRAIN-A/FEMALE, Target Tissue: Type of Lesion: LUNG: ADENOMA, Dose [Carcinogen]: 10 UMOL IN 0.1 ML SALINE ONCE) 100%, 35%, 65%, p<0.001; (Carcinogen: 4-(METHYLNITROSAMINO)-1-(3-PYRIDYL)-1-BUTANONE, 64091-91-4, Dose [Inhibitor]: 0, 1 UMOL ONCE 2 HR PRIOR TO CARCINOGEN DOSE (STUDY DURATION: 16 WK), Route [Inhibitor]: GAVAGE, Species: MOUSE, Strain/Sex: STRAIN-A/FEMALE, Target Tissue: Type of Lesion: LUNG: ADENOMA, Dose [Carcinogen]: 10 UMOL IN 0.1 ML SALINE ONCE) 100%, 35%, 65%, p<0.05; (Carcinogen: 4-(METHYLNITROSAMINO)-1-(3-PYRIDYL)-1-BUTANONE, 64091-91-4, Dose [Inhibitor]: 0, 5 UMOL ONCE 2 HR PRIOR TO CARCINOGEN DOSE (STUDY DURATION: 16 WK), Route [Inhibitor]: GAVAGE, Species: MOUSE, Strain/Sex: STRAIN-A/FEMALE, Target Tissue: Type of Lesion: LUNG: ADENOMA, Dose [Carcinogen]: 10 UMOL IN 0.1 ML SALINE ONCE) 100%, 25%, 75%, p<0.05.
As to `CC1=C(/C=C/C(C)=C/C=C/C(C)=C/C(=O)Nc2nn[nH]n2)C(C)(C)CCC1`, the “tumour outcome (control, treated, inhibition, significance)” value by setting is: (Carcinogen: N-BUTYL-N-(4-HYDROXYBUTYL)NITROSAMINE, 3817-11-6, Dose [Inhibitor]: 1.5 MMOL/KG DIET DAILY FOR 159 D STARTING 1 WK AFTER THE FINAL CARCINOGEN DOSE (STUDY DURATION: 216 D), Route [Inhibitor]: ORAL, Species: MOUSE, Strain/Sex: BDF/MALE, Target Tissue: Type of Lesion: URINARY BLADDER: TRANSITIONAL CELL CARCINOMA, Dose [Carcinogen]: 7.5 MG 1/WK FOR 8 WK) 29/98 (30%), 15/97 (16%), 47%, p<0.05; (Carcinogen: N-BUTYL-N-(4-HYDROXYBUTYL)NITROSAMINE, 3817-11-6, Dose [Inhibitor]: 1.5 MMOL/KG/D IN DIET FOR 159 D STARTING 1 WK POST CARCINOGEN TREATMENT (STUDY DURATION: 216 D), Route [Inhibitor]: ORAL, Species: MOUSE, Strain/Sex: BDF/MALE, Target Tissue: Type of Lesion: URINARY BLADDER: TRANSITIONAL CELL CARCINOMA, Dose [Carcinogen]: 7.5 MG 1/WK FOR 8 WK) 29/98 (30%), 15/97 (16%), 47%, p<0.05.
As for `C#C[C@]1(O)CC[C@H]2[C@@H]3CCC4=Cc5oncc5C[C@]4(C)[C@H]3CC[C@@]21C`, the “tumour outcome (control, treated, inhibition, significance)” value (Carcinogen: 7,12-DIMETHYLBENZ[A]ANTHRACENE, 57-97-6, Dose [Inhibitor]: 0, 2 MG 6 D/WK FOR 169 D BEGINNING 5 D POST CARCINOGEN DOSE (STUDY DURATION: 174 D), Route [Inhibitor]: SUBCUTANEOUS, Species: RAT, Strain/Sex: SPRAGUE-DAWLEY/FEMALE, Target Tissue: Type of Lesion: MAMMARY GLAND: MALIGNANT TUMORS, Dose [Carcinogen]: 20 MG IN 1 ML SESAME OIL ONCE) is reported as 91%, 67%, 26%, p<0.05.
Turning to `C[C@@]12C[C@@]3(O)O[C@@H](O1)[C@]1(COC(=O)c4ccccc4)[C@H]3C[C@@]12O[C@@H]1O[C@H](CO)[C@@H](O)[C@H](O)[C@H]1O`, the “tumour outcome (control, treated, inhibition, significance)” value is listed as 13/27 (48%), 5/28 (18%), 63%, not significant (Carcinogen: AZOXYMETHANE, 25843-45-2, Dose [Inhibitor]: 0, 0.02% IN DIET IN WK 1-3 OF STUDY FOLLOWED BY BASAL DIET FOR DURATION OF STUDY (STUDY DURATION: 1 YR), Route [Inhibitor]: ORAL, Species: RAT, Strain/Sex: F344/MALE, Target Tissue: Type of Lesion: LARGE INTESTINE: ADENOCARCINOMA, Dose [Carcinogen]: 15 MG/KG BW 1/WK IN WK 1 AND 2 OF STUDY) and 6/27 (22%), 9/28 (32%), -45%, not significant (Carcinogen: AZOXYMETHANE, 25843-45-2, Dose [Inhibitor]: 0, 0.02% IN DIET IN WK 1-3 OF STUDY FOLLOWED BY BASAL DIET FOR DURATION OF STUDY (STUDY DURATION: 1 YR), Route [Inhibitor]: ORAL, Species: RAT, Strain/Sex: F344/MALE, Target Tissue: Type of Lesion: LARGE INTESTINE: ADENOMA, Dose [Carcinogen]: 15 MG/KG BW 1/WK IN WK 1 AND 2 OF STUDY).
